Measured values published in US20100297256A1, “METHODS AND COMPOSITIONS FOR INHIBITING INTEGRINS USING TELLURIUM-CONTAINING COMPOUNDS” (priority 2007, published 2010).

Assays:
[1] = system: chick chorioallantoic membrane; assay: Chick chorioallantoic membrane (CAM) angiogenesis assay; type: in vivo; details: 5 μg/ml combined with ECGS 50 μg/ml, 3 days
Procedure: Collagen I solution was prepared by mixing 1.8 ml of collagen I, 4.14 μl of […] NaOH and 0.2 ml of 10×PBS/200 mM HEPES (pH 7.4). 10 μl of a mixture containing 0.1 ml of the collagen I solution and 0.2 ml of PBS either with or without AS101 (5 μg/ml) or SAS (5 μg/ml) was loaded onto a quarter piece of a Thermonox disc and gelled by warming to room temperature for 15 minutes. The disc was then applied to the chorioallantoic membrane of a 10-days-old embryo, following preparation of the eggs by removing 2 ml of albumin from the 3-days-old embryo and by “opening a window” to the 7-day-old embryo. ECGS (50 μg/ml) in PBS was used to induce angiogenesis and 5 μg/ml of AS101 or SAS were mixed with ECGS. After 3-days incubation, the negative or positive response was assessed under a binocular. Positive response, namely the appearance of a typical spokewheel pattern of new blood vessels around the loaded samples, was determined by a blinded observer. Assays for each test sample were carried out three times, and each experiment contains 10 to 12 eggs/data point.

B16F10 melanoma cells = assay: Tumor growth in vivo on CAM; parameters: species or system murine; details: 5 μg daily, 7 days
Procedure: B16F10 melanoma cells (10^6 cells/[…]) in Matrigel were added directly onto the CAM of the 7-days-old embryo (embryos were prepared as described hereinabove). AS101 and SAS (5 μg) were added daily. After a 7-days incubation, with treatment performed each day (PBS, AS101 or SAS), tumors were excised and weighed. Formalin-fixed tumor tissues were paraffin embedded, sectioned at 10 μm, and stained with hematoxylin and eosin (H&E) for examination of tumor cell proliferation and vessel density.

[2] = system: SVEC4-10 endothelial cells; assay: Tube formation assay, SVEC4-10; type: cell-based, murine; details: SVEC4-10 on Matrigel, 3 hours
Procedure: (§1) Plates (48 wells) were coated with 150 μl of Matrigel and incubated at 37° C. for 1 hour to promote gelling. Svec4-10 or HUVEC cells (40,000 cells) in 0.5 ml of serum-free DMEM with varying concentration of AS101 or SAS were added to each well. For positive control, ECGS was added at a concentration of 50 μg/ml. All samples were performed in sextuplicate. After 3 hours incubation, the plates were fixed with methanol and stained with crystal violet. Randomly chosen fields were photographed and density of tube formation was analyzed by imageJ.

HUVEC endothelial cells = assay: Tube formation assay, HUVEC; type: cell-based; details: HUVEC on Matrigel, 3 hours
Procedure: as §1

SVEC4-10 cells [3] = assay: "Scratch" wound closure assay; type: cell-based, murine; details: 1 μg/ml, ECGS 100 μg/ml, cells counted at 12 hours
Procedure: Confluent Svec4-10 monolayers in 6 mm plates were “scratch” wounded using the tip of a universal blue pipette tip and rinsed with PBS. AS101 or SAS (1 μg/ml final concentration) or ECGS (100 μg/ml) were added to the plates containing serum-free DMEM. The plates were incubated at 37° C. and fixed and stained at several time points. Migrated cells at 12 hours were counted along the scratch. The centers of plates at all times were photographed for presented data. The experiment was repeated three times.

SVEC4-10 cells [4] = assay: Cell attachment assay, SVEC4-10; type: cell-based, murine
Procedure: The cell attachment assays were performed in sextuplicate in 96-well plates. The 1 μg of C16 or AG73 peptide in 60 μl double-distilled water was added to each well, and this volume was allowed to air dry overnight in a biosafety hood at room temperature (or fibronectin 20 ng/80 μl for 1 hour at 37° C.). Thereafter, nonspecific binding sites of the tissue culture plastic were blocked by adding 200 μl of 1% bovine serum albumin (BSA) in PBS for 1 hour at 37° C. LAN-1, B16F10 and SVEC4-10 cells were harvested by agitation, washed three times in serum-free DMEM and resuspended in 1% BSA-DMEM. After 20 minutes incubation in 1% BSA in a tube, cells were washed and resuspended in 0.1% BSA. The cells were counted using a hemocytometer and brought to a final cell count of 1×10^6/ml in the 0.1% BSA medium. Cells were divided into tubes and each tube was treated with one of the following in DMEM: ECGS (endothelial cell growth supplement) (50 μg/ml), AS101 (1-5 μg/ml), SAS (1-5 μg/ml), ECGS (50 μg/ml)+SAS (1-5 μg/ml), ECGS (50 μg/ml)+AS101 (1-5 μg/ml), 10% serum, 10% serum+AS101 (1-5 μg/ml) or 10% serum+SAS (1-5 μg/ml).
Next, 150 μl of the treated cell suspension was added to each well (20,000 cells/well), which had been coated with peptides, and incubated for 50 minutes at 37° C. After 50 minutes, the unattached cells were removed by aspiration and the remaining attached cells were fixed and stained by crystal violet. 100 μl aliquot of 10% SDS was thereafter added to each well for cell lysis and dye release and absorption was read with a TECAN spectrophotometer at 570 nm.
Attached cells were washed with PBS without Ca^+2/Mg^+2. 100 μl of 0.2% crystal violet in 20% methanol was thereafter added and the cells were incubated for 10 minutes at room temperature. At the end of incubation time, cells were washed twice with double-distilled water and 100 μl of 10% SDS was added. Dye bound to the cell is released by SDS and the absorption by the dye is measured by colorimetry at 570 nm. The amount of stained cells is then considered to be proportional to the measured absorption by the dye

RAW cells = assay: Cell attachment assay, RAW; type: cell-based
integrin α subunits = assay: Multiple anti-integrin antibody binding assay, α subunits; type: cell-based; details: SVEC cells
Procedure: The specificity of tellurium-containing compounds to integrins was tested by examining the effect of AS101 and SAS on the attachment of SVEC cells to specific anti-integrin antibodies. Commercially available kits (R&D Biosystems) with anti-integrin coated wells were used, and attachment was determined according to the manufacturer's instructions.

Compound	angiogenic capability of ECGS [1]	tumor growth and weight on chorioallantoic membrane (B16F10 melanoma cells)	number of tubes formed [2]	number of tubes formed (HUVEC endothelial cells)	ECGS-induced scratch wound repair by cell migration (SVEC4-10 cells [3])	cell attachment to AG73 peptide (SVEC4-10 cells [4])	cell attachment to C16 peptide (SVEC4-10 cells [4])	cell attachment to fibronectin (SVEC4-10 cells [4])	cell attachment to fibronectin (RAW cells)	cell attachment to antibodies against integrin α subunits (integrin α subunits)
Cl[TeH]1(Cl)(Cl)OCCO1 [AS101, ammonium trichloro(dioxyethylene-O,O′)tellurate]	reduced the angiogenic capability of ECGS to baseline levels	reduced tumor growth and weight	reduced the number of tubes formed	reduced the number of tubes formed	reduce ECGS-induced scratch wound repair	slightly decrease	slightly decrease	inhibited cell attachment to fibronectin	inhibited cell attachment to fibronectin	little if any inhibition
O=C1O[Te]23OC(=O)C(O2)C2O[Te]4(OC(=O)C(O4)C1O3)OC2=O [SAS, [TeO4(COCH)2]2]	reduced the angiogenic capability of ECGS to baseline levels	reduced tumor growth and weight	reduced the number of tubes formed	reduced the number of tubes formed	reduce ECGS-induced scratch wound repair	slightly decrease	slightly decrease	inhibited cell attachment to fibronectin	inhibited cell attachment to fibronectin	little if any inhibition
